# Data taken from patent US10221174B2, “N-(phenylsulfonyl)benzamides and related compounds as BCL-2 inhibitors” (THE REGENTS OF THE UNIVERSITY OF MICHIGAN, priority 2016, dated 2019).
# Where two headings read alike, the source gives them in different places.
# Experiments:
# [1] = target: Bcl-xL (Homo sapiens (Human), UniProt Q07817); assay: Fluorescence polarization competitive binding assay, Bcl-xL; settings: FP competition, 10 nM Bcl-xL, 2 nM Flu-BAK probe; read-out: Inhibitory activity IC50 Bcl-xL
# Chain of Bcl-xL (Q07817 whole entry): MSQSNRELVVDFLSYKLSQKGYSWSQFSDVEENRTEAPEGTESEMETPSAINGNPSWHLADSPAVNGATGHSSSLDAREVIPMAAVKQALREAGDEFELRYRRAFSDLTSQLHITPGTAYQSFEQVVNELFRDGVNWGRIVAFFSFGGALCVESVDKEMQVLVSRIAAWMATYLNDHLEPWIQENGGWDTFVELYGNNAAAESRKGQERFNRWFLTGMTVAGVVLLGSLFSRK
# Procedure: Fluorescence polarization values were measured using the Infinite M-1000 plate reader (Tecan U.S., Research Triangle Park, N.C.) in Microfluor 1 96-well, black, round-bottom plates (Thermo Scientific). […] Plates were mixed and incubated at room temperature for 1 hour with gentle shaking to assure equilibrium. […] Equilibrium dissociation constants (Kd) were then calculated by fitting the sigmoidal dose-dependent FP increases as a function of protein concentrations using Graphpad Prism 5.0 software (Graphpad Software, San Diego, Calif.).
# Mixtures of 5 μl of the tested inhibitors in DMSO and 120 μl of pre-incubated protein/probe complexes in the assay buffer were added into assay plates and incubated at room temperature for 2 hours with gentle shaking. […] FP values were measured as described above. IC50 values were determined by nonlinear regression fitting of the competition curves.
# [2] = test system: RS4;11 cells; assay: RS4;11 cell viability, CCK-8 assay; format: cell-based; settings: Homo sapiens, RS4-11, 96 h, CCK-8, 4 days, read-out: RS4, 11 IC50 (Bcl-2 dependent)
# Procedure: RS4;11 cells were obtained from American Type Culture Collection (ATCC). They were used within three months of thawing fresh vials. Cells were maintained in the recommended culture medium with 10% FBS at 37° C. and an atmosphere of 5% CO2.
# The effect of representative Compounds of the Disclosure on cell viability was determined using Cell Counting Kit-8 (CCK-8) assay (Dojindo, Rockville, Md.) according to the manufacturer's instructions. 200 μL of a RS4;11 cell suspension (10000 cells/well) in culture medium were seeded into 96-well plates and cultured overnight. Each tested compound was serially diluted in culture medium, and 20 μL of the compound dilution was added to the corresponding well of the cell plate. After the addition of the tested compound, the cells were incubated at 37° C. in an atmosphere of 5% CO2 for 4 days. At the end of 4 days, 10 μL of CCK-8 solution was added to each well of the plate and incubated for 1-4 hours. The plates were read at 450 nm on the microplate spectrophotometer (Epoch2, BioTek). The readings were normalized to the vehicle cells, and the IC50 was calculated by nonlinear regression analysis using GraphPad Prism 5 software.
# [3] = test system: MV4;11 cell line; assay: MV4;11 inhibition; format: cell-based
SMILES,IC50 [1],IC50 [2],"IC50 ([3]; Homo sapiens, MV4-11)",IC50 [3]
"O=C(NS(=O)(=O)c1ccc(NCC2CCOCC2)c([N+](=O)[O-])c1)c1ccc(C2=CCN(CC3=C(c4ccc(Cl)cc4)CC4(CCC4)CC3)CC2)cc1Oc1cnc2[nH]ccc2c1 [compound 7, 2-((1H-pyrrolo[2,3-b]pyridin-5-yl)oxy)-4-(1-((6-(4-chlorophenyl)spiro[3.5]non-6-en-7-yl)methyl)-1,2,3,6-tetrahydropyridin-4-yl)-N-((3-nitro-4-(((tetrahydro-2H-pyran-4-yl)methyl)amino)phenyl)sulfonyl)benzamide]",15.7 nM,35 nM,,
"O=C(NS(=O)(=O)c1ccc(NC[C@H]2COCCO2)c([N+](=O)[O-])c1)c1ncc(N2CCN(CC3=C(c4ccc(Cl)cc4)CC4(CCC4)CC3)CC2)cc1Oc1cnc2[nH]ccc2c1 [compound 27, (S)-N-((4-(((1,4-dioxan-2-yl)methyl)amino)-3-nitrophenyl)sulfonyl)-3-((1H-pyrrolo[2,3-b]pyridin-5-yl)oxy)-5-(4-((6-(4-chlorophenyl)spiro[3.5]non-6-en-7-yl)methyl)piperazin-1-yl)picolinamide]",,5.2 nM,0.0169 µM,
"O=C(NS(=O)(=O)c1ccc(NC[C@H]2COCCO2)c([N+](=O)[O-])c1)c1ccc(N2CCN(CC3=C(c4ccc(Cl)cc4)CC4(CCC4)CC3)CC2)nc1Oc1cnc2[nH]ccc2c1 [compound 28, (S)-N-((4-(((1,4-dioxan-2-yl)methyl)amino)-3-nitrophenyl)sulfonyl)-2-((1H-pyrrolo[2,3-b]pyridin-5-yl)oxy)-6-(4-((6-(4-chlorophenyl)spiro[3.5]non-6-en-7-yl)methyl)piperazin-1-yl)nicotinamide]",,968 nM,1.29 µM,
"O=C(NS(=O)(=O)c1cc(F)c(NCC2CCOCC2)c([N+](=O)[O-])c1)c1ccc(N2CCN(CC3=C(c4ccc(Cl)cc4)CC4(CCC4)CC3)CC2)cc1Oc1cnc2[nH]ccc2c1 [compound 29, 2-((1H-pyrrolo[2,3-b]pyridin-5-yl)oxy)-4-(4-((6-(4-chlorophenyl)spiro[3.5]non-6-en-7-yl)methyl)piperazin-1-yl)-N-((3-fluoro-5-nitro-4-(((tetrahydro-2H-pyran-4-yl)methyl)amino)phenyl)sulfonyl)benzamide]",,12 nM,0.0482 µM,
"O=C(NS(=O)(=O)c1ccc(NCC2CCOCC2)c([N+](=O)[O-])c1)c1ncc(N2CCN(CC3=C(c4ccc(Cl)cc4)CC4(CCC4)CC3)CC2)cc1Oc1cnc2[nH]ccc2c1 [compound 30, 3-((1H-pyrrolo[2,3-b]pyridin-5-yl)oxy)-5-(4-((6-(4-chlorophenyl)spiro[3.5]non-6-en-7-yl)methyl)piperazin-1-yl)-N-((3-nitro-4-(((tetrahydro-2H-pyran-4-yl)methyl)amino)phenyl)sulfonyl)picolinamide]",,19 nM,0.0225 µM,
"COCCOCCNc1ccc(S(=O)(=O)NC(=O)c2ncc(N3CCN(CC4=C(c5ccc(Cl)cc5)CC5(CCC5)CC4)CC3)cc2Oc2cnc3[nH]ccc3c2)cc1[N+](=O)[O-] [compound 31, 3-((1H-pyrrolo[2,3-b]pyridin-5-yl)oxy)-5-(4-((6-(4-chlorophenyl)spiro[3.5]non-6-en-7-yl)methyl)piperazin-1-yl)-N-((4-((2-(2-methoxyethoxy)ethyl)amino)-3-nitrophenyl)sulfonyl)picolinamide]",,34 nM,0.116 µM,
"COCCn1cc(S(=O)(=O)NC(=O)c2ccc(N3CCN(CC4=C(c5ccc(Cl)cc5)CC5(CCC5)CC4)CC3)cc2Oc2cnc3[nH]ccc3c2)cc1[N+](=O)[O-] [compound 35, 2-((1H-pyrrolo[2,3-b]pyridin-5-yl)oxy)-4-(4-((6-(4-chlorophenyl)spiro[3.5]non-6-en-7-yl)methyl)piperazin-1-yl)-N-((1-(2-methoxyethyl)-5-nitro-1H-pyrrol-3-yl)sulfonyl)benzamide]",,611 nM,3.6 µM,
"O=C(NS(=O)(=O)c1ccc(NC[C@H]2COCCO2)c([N+](=O)[O-])c1)c1ccc(N2CCN(CC3=C(c4ccc(Cl)cc4)CC4(CCC4)CC3)CC2)c(F)c1Oc1cnc2[nH]ccc2c1 [compound 36, (S)-N-((4-(((1,4-dioxan-2-yl)methyl)amino)-3-nitrophenyl)sulfonyl)-2-((1H-pyrrolo[2,3-b]pyridin-5-yl)oxy)-4-(4-((6-(4-chlorophenyl)spiro[3.5]non-6-en-7-yl)methyl)piperazin-1-yl)-3-fluorobenzamide]",,13 nM,0.0444 µM,
"COCCOCCNc1ccc(S(=O)(=O)NC(=O)c2cc(F)c(N3CCN(CC4=C(c5ccc(Cl)cc5)CC5(CCC5)CC4)CC3)cc2Oc2cnc3[nH]ccc3c2)cc1[N+](=O)[O-] [compound 37, 2-((1H-pyrrolo[2,3-b]pyridin-5-yl)oxy)-4-(4-((6-(4-chlorophenyl)spiro[3.5]non-6-en-7-yl)methyl)piperazin-1-yl)-5-fluoro-N-((4-((2-(2-methoxyethoxy)ethyl)amino)-3-nitrophenyl)sulfonyl)benzamide]",,68 nM,0.154 µM,
"O=C(NS(=O)(=O)C1=CC2C(=O)N(CC3CCOCC3)CC2C([N+](=O)[O-])=C1)c1ccc(N2CCN(CC3=C(c4ccc(Cl)cc4)CC4(CCC4)CC3)CC2)cc1Oc1cnc2[nH]ccc2c1 (centres unmarked) [compound 38, 2-((1H-pyrrolo[2,3-b]pyridin-5-yl)oxy)-4-(4-((6-(4-chlorophenyl)spiro[3.5]non-6-en-7-yl)methyl)piperazin-1-yl)-N-((7-nitro-3-oxo-2-((tetrahydro-2H-pyran-4-yl)methyl)-2,3,3a,7a-tetrahydro-1H-isoindol-5-yl)sulfonyl)benzamide]",,66 nM,0.103 µM,
"O=C(NS(=O)(=O)c1ccc(NC[C@H]2COCCO2)c([N+](=O)[O-])c1)c1cc(F)c(N2CCN(CC3=C(c4ccc(Cl)cc4)CC4(CCC4)CC3)CC2)cc1Oc1cnc2[nH]ccc2c1 [compound 39, (S)-N-((4-(((1,4-dioxan-2-yl)methyl)amino)-3-nitrophenyl)sulfonyl)-2-((1H-pyrrolo[2,3-b]pyridin-5-yl)oxy)-4-(4-((6-(4-chlorophenyl)spiro[3.5]non-6-en-7-yl)methyl)piperazin-1-yl)-5-fluorobenzamide]",,31 nM,,0.0337 µM
"O=C(NS(=O)(=O)c1ccc(NCC2CCOCC2)c([N+](=O)[O-])c1)c1c(F)cc(N2CCN(CC3=C(c4ccc(Cl)cc4)CC4(CCC4)CC3)CC2)cc1Oc1cnc2[nH]ccc2c1 [compound 41, 2-((1H-pyrrolo[2,3-b]pyridin-5-yl)oxy)-4-(4-((6-(4-chlorophenyl)spiro[3.5]non-6-en-7-yl)methyl)piperazin-1-yl)-6-fluoro-N-((3-nitro-4-(((tetrahydro-2H-pyran-4-yl)methyl)amino)phenyl)sulfonyl)benzamide]",,52 nM,0.0181 µM,
"O=C(NS(=O)(=O)c1ccc(NCC2CCOCC2)c([N+](=O)[O-])c1)c1ccc(N2CCN(CC3=C(c4ccc(Cl)cc4)CC4(CCC4)CC3)CC2)c(F)c1Oc1cnc2[nH]ccc2c1 [compound 42, 2-((1H-pyrrolo[2,3-b]pyridin-5-yl)oxy)-4-(4-((6-(4-chlorophenyl)spiro[3.5]non-6-en-7-yl)methyl)piperazin-1-yl)-3-fluoro-N-((3-nitro-4-(((tetrahydro-2H-pyran-4-yl)methyl)amino)phenyl)sulfonyl)benzamide]",,111 nM,0.0881 µM,
"COCCOCCNc1ccc(S(=O)(=O)NC(=O)c2ccc(N3CCN(CC4=C(c5ccc(Cl)cc5)CC5(CCC5)CC4)CC3)c(F)c2Oc2cnc3[nH]ccc3c2)cc1[N+](=O)[O-] [compound 43, 2-((1H-pyrrolo[2,3-b]pyridin-5-yl)oxy)-4-(4-((6-(4-chlorophenyl)spiro[3.5]non-6-en-7-yl)methyl)piperazin-1-yl)-3-fluoro-N-((4-((2-(2-methoxyethoxy)ethyl)amino)-3-nitrophenyl)sulfonyl)benzamide]",,80 nM,0.126 µM,
"O=C(NS(=O)(=O)c1cc([N+](=O)[O-])c2c(cnn2CC2CCOCC2)c1)c1ccc(N2CCN(CC3=C(c4ccc(Cl)cc4)CC4(CCC4)CC3)CC2)cc1Oc1cnc2[nH]ccc2c1 [compound 60, 2-((1H-pyrrolo[2,3-b]pyridin-5-yl)oxy)-4-(4-((6-(4-chlorophenyl)spiro[3.5]non-6-en-7-yl)methyl)piperazin-1-yl)-N-((7-nitro-1-((tetrahydro-2H-pyran-4-yl)methyl)-1H-indazol-5-yl)sulfonyl)benzamide]",67.5 nM,252 nM,,
"O=C(NS(=O)(=O)c1cc([N+](=O)[O-])c2[nH]c(-c3ccncc3)nc2c1)c1ccc(N2CCN(CC3=C(c4ccc(Cl)cc4)CC4(CCC4)CC3)CC2)cc1Oc1cnc2[nH]ccc2c1 [compound 66, 2-((1H-pyrrolo[2,3-b]pyridin-5-yl)oxy)-4-(4-((6-(4-chlorophenyl)spiro[3.5]non-6-en-7 yl)methyl)piperazin-1-yl)-N-((7-nitro-2-(pyridin-4-yl)-1H-benzo[d]imidazol-5-yl)sulfonyl)benzamide]",,243 nM,> 1000 µM,
